In patent US10710978B2, “STK4 inhibitors for treatment of hematologic malignancies” (Dana-Farber Cancer Institute, Inc., priority 2015, dated 2020):
Like-named read-outs stand apart in the source and are kept apart here. Values belong to the compound of their own block, whether it stands above or below them.

Columns and labels:
[1] = target: STK4 (MST1) (Homo sapiens (Human), UniProt Q13043); assay: Z-lyte biochemical IC50 assay (Invitrogen); settings: ATP concentration matched the Km
Method: (§1) STK4 (MST1), STK3 (MST2); STK24 (MST3) and MST4 Assays
(§2) Biochemical IC50s were measured at Invitrogen using Z-lyte technology. Briefly, for STK4, the 2×STK4 (MST1)/Ser/Thr 07 mixture was prepared in 50 mM HEPES pH 7.5, 0.01% BRIJ35, 10 mM MgCl2, 1 mM EGTA. The final 10 μL Kinase Reaction consisted of 6.25-160 ng STK4 (MST1) and 2 μM Ser/Thr 07 in 50 mM HEPES pH 7.5, 0.01% BRIJ-35, 10 mM MgCl2, 1 mM EGTA. After the 1 hour Kinase Reaction incubation, 5 μL of a 1:100000 dilution of Development Reagent A was added. Compounds were screened in a 10 point titration with 3-fold serial dilutions starting at a concentration of 10 μM. The biochemical IC50s against other STK family members were measured similarly. The ATP concentration used matched the Km for each kinase.

[2] = target: STK24 (MST3) (Homo sapiens (Human), UniProt Q9Y6E0); assay: Z-lyte biochemical IC50 assay (Invitrogen); settings: ATP concentration matched the Km
Chain of STK24 (MST3) (Q9Y6E0 whole entry): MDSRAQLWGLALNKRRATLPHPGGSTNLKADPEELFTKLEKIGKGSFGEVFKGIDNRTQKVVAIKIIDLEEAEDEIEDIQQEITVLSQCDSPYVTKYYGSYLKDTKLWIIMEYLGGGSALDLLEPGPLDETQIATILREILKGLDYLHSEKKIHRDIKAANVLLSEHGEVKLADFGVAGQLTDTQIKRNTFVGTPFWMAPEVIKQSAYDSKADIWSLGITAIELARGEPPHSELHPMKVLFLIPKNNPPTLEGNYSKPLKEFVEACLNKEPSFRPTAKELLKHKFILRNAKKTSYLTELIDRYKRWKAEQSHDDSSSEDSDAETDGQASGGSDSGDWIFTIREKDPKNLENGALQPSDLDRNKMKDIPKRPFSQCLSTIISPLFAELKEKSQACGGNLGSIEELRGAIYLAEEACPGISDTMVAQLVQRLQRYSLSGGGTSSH
Method: as §1, §2

[3] = target: GPRK6 (Homo sapiens (Human), UniProt P43250); assay: KiNativ assay; assay type: binding; settings: H929 live cell
Outline: (§3)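 The cell-based KiNativ method was applied to H929 cells that were still live when dosed with compound at 10 μM, in duplicate, and IC50 was read by mass spectrometry.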

[4] = target: STLK3 (Homo sapiens (Human), UniProt Q9UEW8); assay: KiNativ assay; assay type: binding; settings: H929 live cell
Method: (§4) Biochemical IC50s of the compounds of the present disclosure against various kinases were measured in a KiNativ assay. Compounds were screened in duplicate at 10 μM in H929 live cell. IC50 was measured via Mass spectroscopy (MS).

[5] = target: LOK (Homo sapiens (Human), UniProt O94804); assay: KiNativ assay; assay type: binding; settings: H929 live cell
Method: as §4

[6] = target: eEF2K (Homo sapiens (Human), UniProt O00418); assay: KiNativ assay; assay type: binding; settings: H929 live cell
Method: as §4

[7] = target: JAK1 domain2 (Homo sapiens (Human), UniProt P23458); assay: KiNativ assay; assay type: binding; settings: H929 live cell
Method: as §4

[8] = target: MAP2K4 (Homo sapiens (Human), UniProt P45985); assay: KiNativ assay; assay type: binding; settings: H929 live cell
Chain of MAP2K4 (P45985 whole entry): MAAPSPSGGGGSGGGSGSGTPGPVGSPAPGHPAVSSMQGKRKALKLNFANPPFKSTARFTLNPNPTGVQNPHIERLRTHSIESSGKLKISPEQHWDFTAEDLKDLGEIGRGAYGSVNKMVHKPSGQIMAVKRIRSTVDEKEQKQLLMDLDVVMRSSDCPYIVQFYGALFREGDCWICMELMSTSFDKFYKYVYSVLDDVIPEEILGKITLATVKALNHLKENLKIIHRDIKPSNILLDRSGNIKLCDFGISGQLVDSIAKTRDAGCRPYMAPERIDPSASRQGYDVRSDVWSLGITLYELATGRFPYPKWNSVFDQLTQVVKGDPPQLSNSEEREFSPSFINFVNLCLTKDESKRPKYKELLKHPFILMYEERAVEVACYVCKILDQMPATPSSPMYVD
Method: as §4

[9] = target: DNAPK (Homo sapiens (Human), UniProt P78527); assay: KiNativ assay; assay type: binding; settings: H929 live cell, range class, read-out: % inhibition
Method: as §4

[10] = target: NEK4 (Homo sapiens (Human), UniProt P51957); assay: KiNativ assay; assay type: binding; settings: H929 live cell
Method: as §4

[11] = target: TLK1 (Homo sapiens (Human), UniProt Q9UKI8); assay: KiNativ assay; assay type: binding; settings: H929 live cell
Method: as §4

[12] = target: SGK3 (Homo sapiens (Human), UniProt Q96BR1); assay: KiNativ assay; assay type: binding; settings: H929 live cell
Chain of SGK3 (Q96BR1 whole entry): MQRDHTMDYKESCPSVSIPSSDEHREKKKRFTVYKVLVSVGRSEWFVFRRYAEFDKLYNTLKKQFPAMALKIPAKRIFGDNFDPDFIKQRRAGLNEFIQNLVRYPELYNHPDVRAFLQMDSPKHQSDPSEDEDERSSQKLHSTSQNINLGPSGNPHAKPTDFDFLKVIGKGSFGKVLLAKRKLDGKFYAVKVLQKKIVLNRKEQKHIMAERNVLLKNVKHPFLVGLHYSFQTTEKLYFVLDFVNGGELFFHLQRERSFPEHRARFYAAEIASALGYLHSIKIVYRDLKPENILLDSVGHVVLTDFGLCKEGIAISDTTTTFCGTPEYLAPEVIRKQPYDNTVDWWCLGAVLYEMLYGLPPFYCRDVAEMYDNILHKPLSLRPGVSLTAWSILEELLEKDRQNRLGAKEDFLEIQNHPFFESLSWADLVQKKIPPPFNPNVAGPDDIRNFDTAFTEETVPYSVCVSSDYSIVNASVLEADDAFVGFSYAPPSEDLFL
Method: as §4

[13] = target: CHK2 (Homo sapiens (Human), UniProt O96017); assay: KiNativ assay; assay type: binding; settings: H929 live cell
Chain of CHK2 (O96017 whole entry): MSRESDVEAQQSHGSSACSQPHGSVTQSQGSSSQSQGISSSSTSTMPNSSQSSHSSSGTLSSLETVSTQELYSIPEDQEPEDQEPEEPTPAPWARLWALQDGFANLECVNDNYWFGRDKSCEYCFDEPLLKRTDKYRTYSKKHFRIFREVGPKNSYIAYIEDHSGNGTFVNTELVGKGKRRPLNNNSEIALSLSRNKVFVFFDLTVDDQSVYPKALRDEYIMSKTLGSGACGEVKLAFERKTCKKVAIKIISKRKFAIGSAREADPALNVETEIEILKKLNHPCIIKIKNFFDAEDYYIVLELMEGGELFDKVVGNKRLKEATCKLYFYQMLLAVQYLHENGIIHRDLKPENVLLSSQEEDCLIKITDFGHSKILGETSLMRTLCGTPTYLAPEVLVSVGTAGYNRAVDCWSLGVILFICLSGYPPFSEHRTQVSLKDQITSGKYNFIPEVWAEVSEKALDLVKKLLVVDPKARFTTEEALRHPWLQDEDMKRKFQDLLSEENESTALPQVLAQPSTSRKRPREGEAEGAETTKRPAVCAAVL
Method: as §4

[14] = target: ATM (Homo sapiens (Human), UniProt Q13315); assay: KiNativ assay; assay type: binding; settings: H929 live cell
Outline: (§5)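 Each compound is applied at 10 μM to live H929 cells in duplicate. Kinase activity-site labelling is then analysed by KiNativ. IC50 is obtained by mass spectrometry.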

[15] = target: CDK6 (Homo sapiens (Human), UniProt Q00534); assay: KiNativ assay; assay type: binding; settings: H929 live cell
Method: as §4

[16] = target: CaMK4 (Homo sapiens (Human), UniProt Q16566); assay: KiNativ assay; assay type: binding; settings: H929 live cell
Outline: as §3

[17] = target: CHK1 (Homo sapiens (Human), UniProt O14757); assay: KiNativ assay; assay type: binding; settings: H929 live cell
Chain of CHK1 (O14757 whole entry): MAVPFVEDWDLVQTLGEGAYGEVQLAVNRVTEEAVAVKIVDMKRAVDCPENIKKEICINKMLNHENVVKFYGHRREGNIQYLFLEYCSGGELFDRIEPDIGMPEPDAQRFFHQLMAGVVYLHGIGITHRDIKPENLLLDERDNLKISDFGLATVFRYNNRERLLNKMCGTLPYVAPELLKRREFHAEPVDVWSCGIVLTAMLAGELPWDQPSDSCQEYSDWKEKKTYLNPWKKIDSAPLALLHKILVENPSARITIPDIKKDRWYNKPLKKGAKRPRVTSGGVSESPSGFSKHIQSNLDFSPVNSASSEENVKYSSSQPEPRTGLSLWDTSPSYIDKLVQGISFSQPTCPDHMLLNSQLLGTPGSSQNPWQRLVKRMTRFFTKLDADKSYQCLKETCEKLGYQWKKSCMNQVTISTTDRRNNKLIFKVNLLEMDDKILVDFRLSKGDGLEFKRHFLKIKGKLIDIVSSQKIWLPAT
Method: as §4

[18] = target: CDK2 (Homo sapiens (Human), UniProt P24941); assay: KiNativ assay; assay type: binding; settings: H929 live cell
Method: as §4

[19] = target: AurA (Homo sapiens (Human), UniProt O14965); assay: KiNativ assay; assay type: binding; settings: H929 live cell
Chain of AurA (O14965 whole entry): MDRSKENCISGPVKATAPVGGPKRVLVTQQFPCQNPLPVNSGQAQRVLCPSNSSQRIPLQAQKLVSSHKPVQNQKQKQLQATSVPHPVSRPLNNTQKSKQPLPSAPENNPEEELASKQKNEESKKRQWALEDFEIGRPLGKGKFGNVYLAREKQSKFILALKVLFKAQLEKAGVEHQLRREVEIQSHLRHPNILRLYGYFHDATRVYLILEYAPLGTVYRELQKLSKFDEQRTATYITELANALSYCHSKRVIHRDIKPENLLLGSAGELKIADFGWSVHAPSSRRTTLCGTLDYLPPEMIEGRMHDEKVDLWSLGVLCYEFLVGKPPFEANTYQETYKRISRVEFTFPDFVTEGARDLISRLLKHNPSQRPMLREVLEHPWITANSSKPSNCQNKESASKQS
Method: as §4

[20] = target: ZC3/MINK (Homo sapiens (Human), UniProt Q8N4C8); assay: KiNativ assay; assay type: binding; settings: H929 live cell
Chain of ZC3/MINK (Q8N4C8 whole entry): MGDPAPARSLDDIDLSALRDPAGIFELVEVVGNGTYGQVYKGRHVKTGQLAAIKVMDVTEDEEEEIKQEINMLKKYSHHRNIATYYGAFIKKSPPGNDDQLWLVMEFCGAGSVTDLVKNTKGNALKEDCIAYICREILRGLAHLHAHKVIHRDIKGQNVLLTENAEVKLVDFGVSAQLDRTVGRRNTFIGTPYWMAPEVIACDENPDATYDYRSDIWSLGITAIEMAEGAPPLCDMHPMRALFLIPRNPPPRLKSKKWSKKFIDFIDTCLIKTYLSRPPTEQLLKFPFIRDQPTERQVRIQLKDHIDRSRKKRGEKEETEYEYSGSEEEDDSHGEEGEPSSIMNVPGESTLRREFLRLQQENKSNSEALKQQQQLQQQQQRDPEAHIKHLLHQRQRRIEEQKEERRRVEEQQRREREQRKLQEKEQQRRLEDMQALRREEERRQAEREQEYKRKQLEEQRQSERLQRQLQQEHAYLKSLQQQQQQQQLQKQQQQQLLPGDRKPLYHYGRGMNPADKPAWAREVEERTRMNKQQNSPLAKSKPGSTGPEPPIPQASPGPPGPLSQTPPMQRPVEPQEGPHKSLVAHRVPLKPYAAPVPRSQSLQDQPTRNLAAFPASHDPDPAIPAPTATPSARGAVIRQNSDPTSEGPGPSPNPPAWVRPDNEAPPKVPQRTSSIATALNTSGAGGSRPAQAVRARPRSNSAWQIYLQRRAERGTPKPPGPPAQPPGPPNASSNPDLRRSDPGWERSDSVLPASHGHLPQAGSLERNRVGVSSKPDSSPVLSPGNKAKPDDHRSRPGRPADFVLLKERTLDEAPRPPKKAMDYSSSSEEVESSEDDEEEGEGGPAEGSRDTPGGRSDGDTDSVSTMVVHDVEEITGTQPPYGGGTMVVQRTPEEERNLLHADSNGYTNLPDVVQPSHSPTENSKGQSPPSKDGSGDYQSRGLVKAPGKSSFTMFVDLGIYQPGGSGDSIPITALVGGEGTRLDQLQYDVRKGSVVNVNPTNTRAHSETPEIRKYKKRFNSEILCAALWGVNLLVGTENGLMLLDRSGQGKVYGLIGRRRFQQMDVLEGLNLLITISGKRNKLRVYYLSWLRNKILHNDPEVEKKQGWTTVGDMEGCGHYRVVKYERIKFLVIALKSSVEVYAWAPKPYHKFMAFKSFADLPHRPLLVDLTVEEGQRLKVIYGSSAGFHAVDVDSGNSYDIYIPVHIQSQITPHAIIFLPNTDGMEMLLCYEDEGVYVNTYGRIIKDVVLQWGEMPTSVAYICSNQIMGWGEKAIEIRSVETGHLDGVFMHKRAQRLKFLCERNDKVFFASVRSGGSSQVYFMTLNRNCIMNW
Outline: as §5

[21] = tested on: MAST1, MAST2; assay: KiNativ assay; assay type: binding; settings: H929 live cell
Outline: as §3

[22] = tested on: Wnk1, Wnk2, Wnk3; assay: KiNativ assay; assay type: binding; settings: H929 live cell
Method: as §4

[23] = tested on: AMPKa1, AMPKa2; assay: KiNativ assay; assay type: binding; settings: H929 live cell
Method: as §4

[24] = target: NEK7 (Homo sapiens (Human), UniProt Q8TDX7); assay: KiNativ assay; assay type: binding; settings: H929 live cell
Chain of NEK7 (Q8TDX7 whole entry): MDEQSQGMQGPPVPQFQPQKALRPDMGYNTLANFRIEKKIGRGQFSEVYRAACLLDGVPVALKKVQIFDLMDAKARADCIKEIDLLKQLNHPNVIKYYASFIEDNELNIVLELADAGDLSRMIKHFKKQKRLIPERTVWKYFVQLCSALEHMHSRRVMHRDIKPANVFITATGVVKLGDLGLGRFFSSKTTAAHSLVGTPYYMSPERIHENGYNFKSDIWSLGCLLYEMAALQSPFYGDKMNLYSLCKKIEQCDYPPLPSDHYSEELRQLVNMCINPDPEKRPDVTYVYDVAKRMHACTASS
Method: as §4

[25] = target: PCTAIRE1 (Homo sapiens (Human), UniProt Q00536); assay: KiNativ assay; assay type: binding; settings: H929 live cell
Outline: as §5

[26] = target: CK1g3 (Homo sapiens (Human), UniProt Q9Y6M4); assay: KiNativ assay; assay type: binding; settings: H929 live cell
Chain of CK1g3 (Q9Y6M4 whole entry): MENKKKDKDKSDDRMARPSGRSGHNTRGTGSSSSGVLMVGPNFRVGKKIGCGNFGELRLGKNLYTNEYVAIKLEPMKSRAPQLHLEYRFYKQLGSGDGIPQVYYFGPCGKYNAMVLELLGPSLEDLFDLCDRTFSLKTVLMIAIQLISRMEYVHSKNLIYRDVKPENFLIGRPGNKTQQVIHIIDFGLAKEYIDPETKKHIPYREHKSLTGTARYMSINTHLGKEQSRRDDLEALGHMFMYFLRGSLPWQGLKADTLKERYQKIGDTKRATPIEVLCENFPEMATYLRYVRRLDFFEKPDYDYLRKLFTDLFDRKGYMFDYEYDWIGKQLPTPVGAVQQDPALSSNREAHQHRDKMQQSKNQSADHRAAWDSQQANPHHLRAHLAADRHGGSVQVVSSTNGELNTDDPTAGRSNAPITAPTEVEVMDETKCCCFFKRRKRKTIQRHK
Method: as §4

[27] = range class, read-out: % inhibition

SMILES: COc1cc(NS(=O)(=O)C2CC2)ccc1-c1cnc(N)c(-c2ccc3c(c2)CCNC3=O)c1 [Compound I-50, N-(4-(6-amino-5-(1-oxo-1,2,3,4-tetrahydroisoquinolin-6-yl)pyridin-3-yl)-3-methoxyphenyl) cyclopropanesulfonamide]
IC50 [1]: < 40 nM
IC50 [2]: 200 to 900 nM
inhibition at 10 µM [3, 27]: 0%
inhibition at 10 µM ([3]; read-out: inhibition (10 μM)): -40.5%
inhibition at 10 µM [4, 27]: 0%
inhibition at 10 µM ([4]; read-out: inhibition (10 μM)): -12.3%
inhibition at 10 µM [5, 27]: > 90%
inhibition at 10 µM ([5]; read-out: inhibition (10 μM)): 91.6%
inhibition at 10 µM [6, 27]: 0%
inhibition at 10 µM ([6]; read-out: inhibition (10 μM)): -1%
inhibition at 10 µM [7, 27]: 0%
inhibition at 10 µM ([7]; read-out: inhibition (10 μM)): -23.3%
inhibition at 10 µM [8, 27]: 35 to 40%
inhibition at 10 µM ([8]; read-out: inhibition (10 μM)): 37.5%
inhibition at 10 µM [9]: 0%
inhibition at 10 µM [10, 27]: 0%
inhibition at 10 µM ([10]; read-out: inhibition (10 μM)): 25.1%
inhibition at 10 µM [11, 27]: 0%
inhibition at 10 µM ([11]; read-out: inhibition (10 μM)): -7.5%
inhibition at 10 µM [12, 27]: 0%
inhibition at 10 µM ([12]; read-out: inhibition (10 μM)): 11.2%
inhibition at 10 µM [13, 27]: 0%
inhibition at 10 µM ([13]; read-out: inhibition (10 μM)): 19.3%
inhibition at 10 µM [14, 27]: 0%
inhibition at 10 µM ([14]; read-out: inhibition (10 μM)): 34.6%
inhibition at 10 µM [15, 27]: 0%
inhibition at 10 µM ([15]; read-out: inhibition (10 μM)): 15%
inhibition at 10 µM [16, 27]: 0%
inhibition at 10 µM ([16]; read-out: inhibition (10 μM)): -17.9%
inhibition at 10 µM [17, 27]: 0%
inhibition at 10 µM ([17]; read-out: inhibition (10 μM)): -9.6%
inhibition at 10 µM [18, 27]: 0%
inhibition at 10 µM ([18]; read-out: inhibition (10 μM)): 17.3%
inhibition (10 μM) [19]: 11.9%
inhibition at 10 µM [19, 27]: 0%
inhibition at 10 µM ([19]; read-out: inhibition (10 μM)): 18%
inhibition at 10 µM [20, 27]: 50 to 75%
inhibition at 10 µM ([20]; read-out: inhibition (10 μM)): 57.6%
% inhibition ([21]; 10 μM, range class): 0.0%
inhibition (10 μM) [21]: 2.6%
% inhibition ([22]; 10 μM, range class): 0.0%
inhibition (10 μM) [22]: 15.9%
% inhibition ([23]; 10 μM, range class): 0.0%
inhibition (10 μM) [23]: −8.2%
inhibition at 10 µM [24, 27]: 0%
inhibition at 10 µM ([24]; read-out: inhibition (10 μM)): -18.9%
inhibition at 10 µM [25, 27]: 0%
inhibition at 10 µM ([25]; read-out: inhibition (10 μM)): -15.6%
inhibition at 10 µM [26, 27]: 75 to 90%
inhibition at 10 µM ([26]; read-out: inhibition (10 μM)): 77.1%

IC50 [1]: < 40 nM
IC50 [2]: > 900 nM
SMILES: Nc1ncc(-c2cc([N+](=O)[O-])ccc2F)cc1-c1ccc2c(c1)CCNC2=O [Compound I-1, 6-(2-amino-5-(2-fluoro-5-nitrophenyl)pyridin-3-yl)-3,4-dihydroisoquinolin-1(2H)-one]
